Data published in PMC12005787, “Synthetic Lethality of SHP2 and XIAP Suppresses Proliferation and Metastasis in KRAS‐mutant Nonsmall Cell Lung Cancer” (Advanced Science, 2025).

Tests used:
SHP2 = molecular target: T1, SHP2 (Homo sapiens, UniProt Q06124); assay: Cellular thermal shift assay (CETSA); assay type: binding; settings: NCI‐H2122 cell lysate
T1 construct: endogenous in cells; host or cells: NCI-H2122
T1 sequence (Q06124 1-593): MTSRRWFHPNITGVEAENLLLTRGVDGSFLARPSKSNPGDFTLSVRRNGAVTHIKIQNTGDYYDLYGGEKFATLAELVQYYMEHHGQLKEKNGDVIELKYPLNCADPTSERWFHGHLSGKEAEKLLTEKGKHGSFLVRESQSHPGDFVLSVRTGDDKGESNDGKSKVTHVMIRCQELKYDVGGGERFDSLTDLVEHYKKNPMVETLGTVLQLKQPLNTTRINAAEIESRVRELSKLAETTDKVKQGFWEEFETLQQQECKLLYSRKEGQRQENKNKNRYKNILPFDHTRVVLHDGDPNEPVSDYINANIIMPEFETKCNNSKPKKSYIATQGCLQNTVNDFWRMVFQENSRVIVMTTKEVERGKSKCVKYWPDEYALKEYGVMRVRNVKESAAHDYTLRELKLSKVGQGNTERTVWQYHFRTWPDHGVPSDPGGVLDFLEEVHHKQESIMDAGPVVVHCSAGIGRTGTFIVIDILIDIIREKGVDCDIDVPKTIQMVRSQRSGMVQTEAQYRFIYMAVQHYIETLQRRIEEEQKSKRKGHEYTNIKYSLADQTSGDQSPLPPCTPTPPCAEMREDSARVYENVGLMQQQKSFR
Description: (§1) NCI‐H2122 cells were harvested and resuspended with pre‐cooled PBS containing 1% cocktail, which was then frozen in liquid nitrogen for 5 min and thawed in a water bath at 37 °C for 5 min for three repetitions. The supernatant was collected via centrifugation at 4 °C (15 000 × g, 20 min), divided into two equal portions; one was added with test drugs or various concentrations of embelin, and the other was added with DMSO as control and subsequently incubated at 25 °C for 30 min. All samples were heated at temperatures ranging from 52–70 °C for 3 min, and subsequently in an ice bath for 3 min and collected by centrifugation at 4 °C (15 000 × g, 20 min), and added with protein sampling buffer at 100 °C for 5 min, followed by analysis of protein stability using western blotting.

His‐SHP2 (full‐length) = molecular target: T2, His‐SHP2 (full‐length) (Homo sapiens, UniProt Q06124); assay: Full-length SHP2 activity activated by bis-phosphorylated Gab1 peptide; assay type: biochemical
T2 construct: His; made in house; host or cells: E. coli
Description: For detection of SHP2 allosteric regulation by the compounds, the soluble fusion His‐SHP2 protein was cloned, expressed, and purified by constructing a pET28a‐PTPN11 recombinant plasmid in E. coli. Subsequently, 148 nM His‐SHP2 protein with 14.8 µM peptide (bis‐phosphorylated peptide from Gab1, with the sequence of: H2N‐VE(pY)LDLDLD(PEG8)RVD‐(pY)VVVDQQ‐amide) was mixed thoroughly in reaction buffer and incubated for 30 min at 37 °C in the dark. The fluorescence intensity was detected by DiFMUP after addition of different drugs and incubation at 37 °C for 30 min, with SHP099 and Na3VO4 as positive controls and unactivated protein as negative controls.

His‐ΔSHP2 = molecular target: T3, His‐ΔSHP2 (Homo sapiens, UniProt Q06124); assay: Isothermal titration calorimetry; assay type: binding; settings: read-out: KD value (ITC)
T3 construct: His‐ΔSHP2, encompassing the peptide from amino acids 205–593 retaining PTP activity; His; made in house; host or cells: E. coli
T3 sequence (Q06124 205-593): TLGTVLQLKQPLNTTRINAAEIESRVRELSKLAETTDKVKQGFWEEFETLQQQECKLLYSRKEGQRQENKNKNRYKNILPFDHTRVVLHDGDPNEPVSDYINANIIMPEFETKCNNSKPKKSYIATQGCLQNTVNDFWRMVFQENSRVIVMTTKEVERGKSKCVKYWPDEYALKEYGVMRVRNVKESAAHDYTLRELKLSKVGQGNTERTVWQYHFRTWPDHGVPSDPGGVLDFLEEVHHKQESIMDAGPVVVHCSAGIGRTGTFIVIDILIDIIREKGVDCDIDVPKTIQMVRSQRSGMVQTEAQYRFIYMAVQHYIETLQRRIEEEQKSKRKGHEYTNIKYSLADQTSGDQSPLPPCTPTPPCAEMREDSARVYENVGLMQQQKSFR
Description: (§2) The purified His‐ΔSHP2, His‐SHP2, or His‐ΔSHP2^K325A proteins were dialyzed overnight in dialysis buffer (20 mM HEPES, 0.15 M NaCl, 1 mM TCEP, 10% glycerol, pH 7.5). The protein concentration was determined using the BCA Protein Assay Kit, and the purity of the proteins was detected by Coomassie Brilliant Blue staining. ITC experiments were performed when the protein concentration was higher than 2 mg mL^−1 and the purity was greater than 90%. The instrument (Malvern Instruments, USA) was considered to be functioning optimally for compound and protein titration experiments when the DP value was < 0.05 µcal s^−1 by the water droplet experiment. After the sample cell was cleaned twice with protein dialysis buffer, a protein sample (300 µL) was loaded to the sample cell, an equal amount of ultrapure water was added to the reference cell, and the compound solution dissolved with the same dialysis buffer was put into the corresponding cell, in which the protein‐compound molar ratio was 1:10–1:20. The parameters were adjusted based on the curve‐fitting results to determine the optimal binding concentration gradient. Based on the exothermic changes in the reaction, the entropy increase and enthalpy change were analyzed using software fitting to obtain parameters such as the binding coefficient and affinity constant between the small molecules and proteins.

His‐SHP2 = molecular target: T4, His‐SHP2 (Homo sapiens, UniProt Q06124); assay: Isothermal titration calorimetry; assay type: binding; settings: read-out: KD value (ITC)
T4 construct: His; made in house; host or cells: E. coli
Description: as §2

XIAP = molecular target: T5, XIAP (Homo sapiens, UniProt P98170); assay: Cellular thermal shift assay (CETSA); assay type: binding; settings: 56 and 62 ℃
T5 construct: endogenous in cells; host or cells: NCI-H2122
T5 sequence (P98170 whole entry): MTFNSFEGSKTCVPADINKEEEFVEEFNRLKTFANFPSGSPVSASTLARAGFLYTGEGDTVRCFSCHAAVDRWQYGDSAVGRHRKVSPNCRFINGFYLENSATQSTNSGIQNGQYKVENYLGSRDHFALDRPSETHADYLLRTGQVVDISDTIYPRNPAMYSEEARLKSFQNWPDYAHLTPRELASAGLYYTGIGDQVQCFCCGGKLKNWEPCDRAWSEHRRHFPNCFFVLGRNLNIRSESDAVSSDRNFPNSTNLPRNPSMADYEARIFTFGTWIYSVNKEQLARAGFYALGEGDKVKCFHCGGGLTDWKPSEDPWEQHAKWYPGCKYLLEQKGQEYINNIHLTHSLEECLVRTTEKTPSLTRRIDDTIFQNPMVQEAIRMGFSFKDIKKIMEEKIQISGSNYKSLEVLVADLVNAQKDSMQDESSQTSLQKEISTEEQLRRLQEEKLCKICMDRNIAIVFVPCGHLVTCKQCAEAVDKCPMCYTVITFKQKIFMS
Description: as §1

effect on SHP2 protein stability (CETSA) (SHP2)	effect on SHP2 full‐length activity allosterically activated by bis‐phosphorylated Gab1 peptide (His‐SHP2 (full‐length))	Kd (His‐ΔSHP2)	Kd (His‐SHP2)	Structure (SMILES)	effect on XIAP protein stability (CETSA) (XIAP)
increased the stability of SHP2 protein	no effect	220 nM	22.9 nM	CCCCCCCCCCCC1=C(O)C(=O)C=C(O)C1=O [Embelin]	–
–	–	–	–	CC1(N)CCN(c2cnc(-c3cccc(Cl)c3Cl)c(N)n2)CC1 [SHP099]	did not affect XIAP protein stability
